Holding throughout (experiment): NCI tumour cell line growth inhibition, 48 h
Assay [1] relates to DLD-1.
Assay [2] has as its system DMS-114.
Assay [3] relates to DMS-273.
Assay [4] has as its system HOP-18.
Assay [5] relates to KM-20L2.
In assay [6] the test system is M19-MEL.
Assay [7] concerns RXF 631.
The test system of assay [8] is SNB-78.
Assay [9] concerns XF498.

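Dose response: 5 concentrations. Exposure: 48 h. Format: 96-well plates. Endpoint: linear interpolation; highest concentration if not reached. GI50 marks 50% less growth.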 The source made the active and inactive calls. No stated cut-off is given here; in the data, active = GI50 up to about 1.1 µM and inactive = higher.

Take `CC(=O)OCCOCNC(=S)N/N=C/c1cc(Br)cs1`: the GI50 in assay [1], in assay [2], in [3], in assay [4], in assay [5] and in [6] was > 100 µM (inactive) in each case. Further, the GI50 in [7], in assay [8] and in assay [9] was > 100 µM (inactive) throughout.
As to `c1ccc2c(NCCCCCCNc3c4ccccc4nc4ccccc34)c3ccccc3nc2c1`, the GI50 was 0.291 µM (active) in assay [1]; 0.366 µM (active) in [2]; 0.0214 µM (active) in assay [3]; 2.91 µM (inactive) in assay [4]; 0.0785 µM (active) in assay [5]; 1.09 µM (active) in assay [6]. The GI50 in assay [8] is 0.498 µM (active); in [9] it was 1.41 µM (inactive).
Take `Cc1[nH]c2ccccc2c1-c1n[nH]c(=O)c2ccccc12`: the GI50 in assay [1] is 15.9 µM (inactive); in assay [2], 14.8 µM (inactive); in [3], 8.79 µM (inactive); in [5], 25.2 µM (inactive); in [6] it was 29 µM (inactive); in assay [7], 13 µM (inactive). In addition, the GI50 is 46.8 µM (inactive) in assay [8] and 27.1 µM (inactive) in assay [9].
As to `CCOC(=O)/C=C1\CCCC12OCCO2`, the GI50 in [1] was 89.3 µM (inactive); in assay [2], 85.5 µM (inactive); in assay [3], 53.5 µM (inactive); in assay [4] it was > 100 µM (inactive); in [5], > 100 µM (inactive); in assay [6] it was > 100 µM (inactive). Also, the GI50 in [8] is > 100 µM (inactive).
Consider `Cc1cc(N(CCC#N)S(=O)(=O)c2ccccc2)ccc1C=O`, for which the GI50 in assay [1], in [2], in assay [3], in assay [4], in assay [5] and in assay [7] was > 100 µM (inactive) each time. In addition, the GI50 in [8] was > 100 µM (inactive).
On to `NC1CCCCC1.O=C(O)C1(P(=O)(O)O)CC1`, for which the GI50 in assay [1], in [2], in assay [3], in assay [4], in assay [5] and in [6] was > 100 µM (inactive) throughout. Besides, the GI50 in [8] and in [9] was > 100 µM (inactive) each time.
With `CC(C)OC(=O)c1cccnc1/C=N/O`, the GI50 in assay [1], in assay [2], in assay [3], in assay [5], in [6] and in assay [8] was > 100 µM (inactive) each time. Also, in [9], the GI50 was > 100 µM (inactive).
For the compound `COc1ccc(CC2C(=O)NC(C)C(=O)N(C)C3Cc4ccc(cc4)Oc4cc(ccc4O)CC(C(=O)NC(C)C(=O)NC(C)C(=O)N2C)N(C)C3=O)cc1` (centres undefined), the GI50 in assay [1] is 0.0469 µM (active); in assay [3] it was 0.0175 µM (active); in [5], 0.0175 µM (active); in assay [6], 0.0175 µM (active); in [8] it was 0.0175 µM (active); in [9] it was 0.0175 µM (active).
With `CC(C)(C)NCC(COc1ccc([N+](=O)[O-])cc1)OP(c1ccccc1)c1ccccc1` (centres undefined), the GI50 in assay [1] is 27.8 µM (inactive); in assay [2] it was 23 µM (inactive); in assay [3] it was 29.8 µM (inactive); in assay [5], 36.4 µM (inactive); in assay [6], 40.6 µM (inactive); in assay [8] it was 25.9 µM (inactive). Besides, the GI50 in assay [9] is 22.5 µM (inactive).
On to `COc1nc(NC2OC(COC(C)=O)C(OC(C)=O)C(OC(C)=O)C2OC(C)=O)c(/N=C/C=N/c2c(NC3OC(COC(C)=O)C(OC(C)=O)C(OC(C)=O)C3OC(C)=O)nc(OC)n(C)c2=O)c(=O)n1C` (centres undefined), for which the GI50 is > 100 µM (inactive) in assay [1]; > 100 µM (inactive) in assay [2]; > 100 µM (inactive) in assay [4]; > 100 µM (inactive) in assay [5]; > 100 µM (inactive) in [6]; 44.2 µM (inactive) in [9].
As to `NC(N)=NN/C(=C1/N=c2ccc([N+](=O)[O-])cc2=NC1=O)C(O)c1ccco1` (centres undefined), the GI50 in assay [1] was > 100 µM (inactive); in [2], 27.5 µM (inactive); in [3], > 100 µM (inactive); in assay [4], > 100 µM (inactive); in assay [5], > 100 µM (inactive); in [6], > 100 µM (inactive). In addition, the GI50 in [8] and in assay [9] was > 100 µM (inactive) in each case.
Turning to `COc1cc(/C=C2/C(=O)N(C(=O)OCC(C)C)C(Cc3cc(OC)c(OC)c(C)c3OC)C(=O)N2Cc2ccccc2)c(OC)c(C)c1OC` (centres undefined), the GI50 was 84.3 µM (inactive) in [1]; 23.1 µM (inactive) in assay [2]; > 100 µM (inactive) in assay [3]; > 100 µM (inactive) in assay [4]; > 100 µM (inactive) in [5]; > 100 µM (inactive) in [6]. Also, the GI50 in assay [7] is > 100 µM (inactive).
On to `O=S(=O)(N/N=C/c1cccc(/C=N/NS(=O)(=O)c2ccccc2)c1)c1ccccc1`, for which the GI50 in assay [1] is 81.5 µM (inactive); in [2], 47.4 µM (inactive); in [3], > 100 µM (inactive); in assay [4], 91 µM (inactive); in assay [5], > 100 µM (inactive); in [6], > 100 µM (inactive). The results for the GI50 in assay [7] and in assay [8] were 73.8 µM (inactive) and > 100 µM (inactive), respectively.
In the case of `NC1CCC2(O)c3ccccc3C2C1` (centres undefined), the GI50 in assay [2], in assay [3], in assay [4], in assay [5], in [6] and in assay [8] was > 100 µM (inactive) each time. In addition, in assay [9], the GI50 was > 100 µM (inactive).
On to `NC(=O)C(=O)C1C(=O)N(c2ccccc2)N=C1N` (centres undefined), for which the GI50 in assay [1], in assay [3], in assay [5], in [8] and in assay [9] was > 100 µM (inactive) throughout.
For the compound `CC1=CCCC2C1(C)CCC(C)C2(C)Cc1cc(O)ccc1O` (centres undefined), the GI50 in assay [1] was 6.34 µM (inactive); in assay [2], 4.2 µM (inactive); in assay [3] it was 4.91 µM (inactive); in assay [4], 19.2 µM (inactive); in assay [5] it was 10.8 µM (inactive); in assay [6] it was 5.57 µM (inactive). For the same compound, the GI50 in assay [8] was 2.59 µM (inactive); in [9] it was 7.23 µM (inactive).
As for `CNC(C)(C)Cc1ccc(Cl)cc1`, the GI50 was > 100 µM (inactive) in assay [1]; > 100 µM (inactive) in assay [2]; > 100 µM (inactive) in [5]; > 100 µM (inactive) in assay [6]; 34.7 µM (inactive) in assay [9].
In the case of `Cc1ccc(/N=N/c2c(C)nn(-c3ccccc3)c2-c2ccccc2)c(Br)c1`, the GI50 is 57.4 µM (inactive) in [1]; > 100 µM (inactive) in [4]; > 100 µM (inactive) in [5]; 55.1 µM (inactive) in assay [6]; 34.4 µM (inactive) in [7].
As to `Cc1ccccc1NC(=O)C(=O)Cc1nc2ccccc2s1`, the GI50 in assay [1], in assay [2], in assay [3], in assay [4], in [6] and in [7] was > 100 µM (inactive) each time. Moreover, the figures for the GI50 in [8] and in [9] were 92.5 µM (inactive) and > 100 µM (inactive), respectively.
Take `Clc1ccc2c(c1)-c1c3c(nn1-c1ccccc1)-c1ccccc1SC3O2` (centres undefined): the GI50 in assay [2] is 56.1 µM (inactive); in assay [3], > 100 µM (inactive); in [4] it was > 100 µM (inactive); in [5], > 100 µM (inactive); in assay [6], > 100 µM (inactive); in assay [8], > 100 µM (inactive). In addition, the GI50 in [9] is > 100 µM (inactive).
Turning to `CCC1CCCCN1CC(C(C)=O)C(c1ccccc1)c1c(O)c2ccccc2oc1=O` (centres undefined), the GI50 in assay [1], in assay [2], in [3], in assay [5], in assay [6] and in assay [7] was > 100 µM (inactive) in each case. For the same compound, the GI50 in assay [8] and in assay [9] was > 100 µM (inactive) in each case.
`N#C/C(=C1\SC(C(N)=O)=C(N)N1c1ccccc1)c1nc2ccccc2[nH]1`: the GI50 in [1] was > 100 µM (inactive); in assay [2] it was > 100 µM (inactive); in assay [3], > 100 µM (inactive); in [5], > 100 µM (inactive); in assay [6], > 100 µM (inactive); in assay [8], 44.4 µM (inactive). Moreover, in assay [9], the GI50 is > 100 µM (inactive).
Consider `COC(=O)c1ccccc1N1C(=O)Cc2ccccc2C1=O`, for which the GI50 in assay [2], in [3], in assay [5], in assay [6] and in assay [8] was > 100 µM (inactive) each time.
On to `CC(C)C(C(=O)O)N(CC1(O)OCC(O)C(O)C1O)N=O` (centres undefined), for which the GI50 in assay [1], in assay [2], in assay [3], in assay [5], in [6] and in assay [7] was > 100 µM (inactive) in each case. Further, the GI50 in [8] and in [9] was > 100 µM (inactive) each time.
Take `CSc1nc2c(nc(N)n2C2OC(COC(C)=O)C(OC(C)=O)C(OC(C)=O)C2OC(C)=O)c(=O)n1C` (centres undefined): the GI50 in [1], in [2], in assay [4], in assay [5], in assay [7] and in assay [8] was > 100 µM (inactive) in each case. For the same compound, the GI50 in assay [9] is > 100 µM (inactive).
`CC1C=CC(C)C2(O)C(=O)NC(O)C12` (centres undefined): the GI50 in assay [1], in assay [2], in assay [3], in [4], in assay [5] and in assay [6] was > 100 µM (inactive) in each case. Moreover, the GI50 in assay [7] and in assay [8] was > 100 µM (inactive) each time.

The record behind these values is ChEMBL document CHEMBL1201862, “PubChem BioAssay data set” (2004).
